This note sets out measurements from patent publication US20050197365A1, “Diamino thiazoloindan derivatives and their use” (priority 2004, published 2005).

One assay relates to EAE. Put plainly: Experimental Allergic Encephalomyelitis (EAE) model of MS. It is filed as in vivo, mice. The note with it: for incidence Value: mice, 10/group; for GMS % inhibition (first GMS column) / GMS % inhibition (second GMS column) / incidence % inhibition: vs methyl cellulose control; for GMS Value (first GMS column) / GMS Value (second GMS column): EAE score scale 0-5.

The next assay has as its system MPP+ treated PC-12 cells. Put plainly: Effect on MPP+ treated PC-12 cells (neuroprotection, LDH release). The format is cell-based. The note with it: 1000 μM MPP+ for 48 hours, LDH in medium. How it is done: Pheochromocytoma PC-12 cells (at a density of 200,000 cells/well) were cultured for 10 days with 50 ng/ml NGF on 6-well culture dishes coated with […] rat tail type I collagen (BD Biosciences, Bedford, Mass., USA). At the day of the experiment the morphological differentiation of the cells was very advanced (typical network formation). In order to initiate the neurotoxic insult, cells were treated with 1000 μM of 1-methyl-4-phenylpyrdinium (MPP+) iodide salt from RBI chemicals (Natick, Mass., USA) for 48 hours in the absence or presence of tested compounds, added to the culture 30 min. prior to MPP+ administration. […] At the cellular level, neuronal cell death is induced by several mechanisms including pathological concentrations of intracellular calcium and free oxygen radicals. Therefore the positive controls in this experiment were nimodipine at the concentration of 10 μM (RBI chemicals, Natick, Mass., USA) (a potent L-type calcium channel blocker) and 4-hydroxy-2,2,6,6-tetramethylpiperidyne-1-oxyl (tempol, a potent antioxidant) at a concentration of 500 μM, (Sigma, St Louis, Mo., USA). At the end of the experiment cell death was measured by assessing Lactate dehydrogenase (LDH) activity in the medium. High medium LDH indicated increased neuronal death that promoted leakage of this cytoplasmic enzyme into the medium.
Measuring lactate dehydrogenase activity in the medium was performed using a Sigma Diagnostics LD-L reagent. LDH activity was spectrophotometrically monitored at 340 nm by following the rate of conversion of oxidized nicotinamide adenine dinucleotide (NAD^+) to the reduced form of (NADH). Total LDH of each culture (extracellular+intracellular) was obtained by measuring LDH in the medium after freezing and thawing of the cultures. Basal LDH release was measured in untreated cultures (no MPP+). The neurotoxic effect was calculated according to the formula: (LDHs−LDHb)/LDHt×100. (s=sample; b=basal; t=total). Each compound was tested in sixplicate.
To calculate the percentage of neuroprotection for each set of sixplicate experiments, the average neurotoxicity was calculated and the following calculation was undertaken: 100−([neurotoxicity test compound/neurotoxicity MPP^+]×100).

Setting [1] is: 2 × 10 mg/kg oral (twice a day).
The mark [2] stands for this setting: Dose 1 μM, NGF-differentiated PC-12 cells.
The mark [3] stands for this setting: Dose 10 μM, NGF-differentiated PC-12 cells.

Regarding `C#CCNC1CCc2ccc3nc(N)sc3c21.Cl.Cl` (stereo not drawn) [Compound B-1, N8-prop-2-ynyl-7,8-dihydro-6H-1-thia-3-aza-as-indacene-2,8-diamine diHCl], in the assay on EAE (2 × 5 mg/kg oral), the “Mean duration” value was 0.1 ± 0.3 days, the “GMS % inhibition (first GMS column)” value stood at 90.0%, the “GMS % inhibition (second GMS column)” value is reported as 99.2% and the incidence % inhibition was 75.0%. In addition, in the assay with EAE (2 × 5 mg/kg oral), the “GMS Value (first GMS column)” value is given as 0.1 ± 0.3 and the “GMS Value (second GMS column)” value stood at 0.005 ± 0.02. In addition, in the assay on EAE (2 × 5 mg/kg oral (twice a day)), the “incidence Value” is recorded as 1/10. Also, in the assay with EAE (2 × 10 mg/kg oral), the “Mean duration” value was determined as 3.3 ± 7.0 days, the “GMS % inhibition (first GMS column)” value is 60.0%, the “GMS % inhibition (second GMS column)” value was determined as 50.0% and the incidence % inhibition came out at 50.0%. Further, in the assay with EAE (2 × 10 mg/kg oral), the “GMS Value (first GMS column)” value turned out to be 0.4 ± 1.0 and the “GMS Value (second GMS column)” value turned out to be 0.3 ± 0.8. The “incidence Value” in the assay with EAE (setting [1]) is on record as 2/10. Moreover, in the assay on MPP+ treated PC-12 cells (setting [2]), the “% neuroprotection” value is recorded as 60-87%. Besides, the “% neuroprotection” value in the assay with MPP+ treated PC-12 cells (setting [3]) is given as 58-81%.

Consider `CC1(C)CC(O)CC(C)(C)N1[O]` [Tempol, 4-hydroxy-2,2,6,6-tetramethylpiperidyne-1-oxyl, reference compound], for which, in the assay on MPP+ treated PC-12 cells (Dose 1000 μM (positive control)), the “% neuroprotection” value is reported as 100%.

In the case of `C#CCNC1CCc2cc3sc(N)nc3cc21.Cl.Cl` (stereo not drawn) [Compound A-1, N5-prop-2-ynyl-6,7-dihydro-5H-1-thia-3-aza-s-indacene-2,5-diamine diHCl], in the assay with EAE (2 × 5 mg/kg oral), the “Mean duration” value is reported as 3.0 ± 6.3 days, the “GMS % inhibition (first GMS column)” value is on record as 40.0%, the “GMS % inhibition (second GMS column)” value is recorded as 33.3% and the incidence % inhibition is listed as 50.0%. For the same compound, in the assay with EAE (2 × 5 mg/kg oral), the “GMS Value (first GMS column)” value is 0.6 ± 1.3 and the “GMS Value (second GMS column)” value stood at 0.4 ± 0.8. The “incidence Value” in the assay on EAE (2 × 5 mg/kg oral (twice a day)) is 2/10. For the same compound, in the assay with EAE (2 × 10 mg/kg oral), the “Mean duration” value came out at 1.8 ± 5.7 days, the “GMS % inhibition (first GMS column)” value is recorded as 70.0%, the “GMS % inhibition (second GMS column)” value is 66.7% and the incidence % inhibition is 75.0%. In the assay on EAE (2 × 10 mg/kg oral), the “GMS Value (first GMS column)” value is 0.3 ± 0.9 and the “GMS Value (second GMS column)” value is 0.2 ± 0.6. The “incidence Value” in the assay on EAE (setting [1]) is on record as 1/10. Moreover, the “% neuroprotection” value in the assay with MPP+ treated PC-12 cells (setting [2]) was found to be 50%. In the assay on MPP+ treated PC-12 cells (setting [3]), the “% neuroprotection” value was determined as 60%.
